Assay results from ChEMBL document CHEMBL4334500, “Macrocyclic Diterpenoids from Euphorbia helioscopia and Their Potential Anti-inflammatory Activity” (J Nat Prod, 2019).
The source made the active and inactive calls. No cut-off for these calls is given here.

Assays:
RAW264.7 [1] = test: Anti-inflammatory activity in mouse RAW264.7 cells assessed as inhibition of LPS-stimulated NO production preincubated with LPS and measured after 20 hrs by Griess reagent-based assay; assay type: functional, cell-based
RAW264.7 [2] = test: Cytotoxicity against mouse RAW264.7 cells at 6.25 to 100 uM measured after 24 hrs by MTT assay; assay type: cell-based; conditions: raw264.7, 24 h
RAW264.7 [3] = test: Antiinflammatory activity in mouse RAW264.7 cells assessed as effect on LPS-induced TNF-alpha mRNA expression after 12 to 24 hrs by FQ-PCR analysis; assay type: functional, cell-based
[4] = biological target: Transcription factor p65 (Mus musculus) (UniProt Q04207); test: Inhibition of LPS-induced NF-kappaB p65 translocation in mouse RAW264.7 cells at 3 to 12 uM incubated for 2 hrs by DAPI staining based immunofluorescence assay; assay type: cell-based
RAW264.7 [5] = test: Antiinflammatory activity in mouse RAW264.7 cells assessed as decrease in LPS-induced TNF-alpha secretion after 24 hrs by ELISA; assay type: functional, cell-based
RAW264.7 [6] = test: Antiinflammatory activity in mouse RAW264.7 cells assessed as decrease in LPS-induced IL-6 secretion after 24 hrs by ELISA; assay type: functional, cell-based
RAW264.7 [7] = test: Antiinflammatory activity in mouse RAW264.7 cells assessed as decrease in LPS-induced IL-6 mRNA expression after 6 to 24 hrs by FQ-PCR analysis; assay type: functional, cell-based
RAW264.7 [8] = test: Anti-inflammatory activity in mouse RAW264.7 cells assessed as inhibition of LPS-stimulated NO production at 15 uM preincubated with LPS and measured after 20 hrs by Griess reagent-based assay relative to control; assay type: functional

Sequence of Transcription factor p65 (Mus musculus) (Q04207 whole entry): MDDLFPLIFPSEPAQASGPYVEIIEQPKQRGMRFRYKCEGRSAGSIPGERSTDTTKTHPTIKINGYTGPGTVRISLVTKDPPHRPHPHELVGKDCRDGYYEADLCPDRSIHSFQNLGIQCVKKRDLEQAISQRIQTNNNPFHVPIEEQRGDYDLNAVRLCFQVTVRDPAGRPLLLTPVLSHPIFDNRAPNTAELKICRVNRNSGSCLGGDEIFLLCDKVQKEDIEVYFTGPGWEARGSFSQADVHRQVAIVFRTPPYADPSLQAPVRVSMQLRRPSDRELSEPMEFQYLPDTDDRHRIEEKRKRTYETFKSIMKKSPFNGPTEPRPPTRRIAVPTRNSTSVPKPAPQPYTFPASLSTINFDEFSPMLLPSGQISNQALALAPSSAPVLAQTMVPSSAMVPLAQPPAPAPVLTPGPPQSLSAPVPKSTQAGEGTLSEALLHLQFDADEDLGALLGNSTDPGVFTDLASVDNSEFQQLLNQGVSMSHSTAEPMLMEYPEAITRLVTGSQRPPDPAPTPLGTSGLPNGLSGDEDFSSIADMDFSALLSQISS

| Structure (SMILES) | inhibition (RAW264.7 [1]) | Activity (RAW264.7 [2]) | further results |
| --- | --- | --- | --- |
| CC(=O)O[C@@H]1[C@H](C)/C=C/C(C)(C)C(=O)CC/C(C)=C/[C@H]2[C@@H](OC(=O)c3ccccc3)[C@H](C)C[C@]12OC(C)=O | inactive | Non-Toxic | – |
| CC(=O)O[C@@H]1[C@@H](C)/C=C/C(C)(C)C(=O)C[C@@H](OC(C)=O)/C(C)=C/[C@H]2[C@@H](OC(=O)c3ccccc3)[C@H](C)C[C@]12OC(C)=O | inactive | Non-Toxic | – |
| CC(=O)O[C@@H]1[C@@H](C)[C@H](C=C(C)C)C(=O)C[C@@H](OC(C)=O)/C(C)=C/[C@H]2[C@@H](OC(=O)c3ccccc3)[C@H](C)C[C@]12OC(C)=O | – | Non-Toxic | Activity (RAW264.7 [3]): inactive; inhibition [4]: Active; IC50 (RAW264.7 [1]): 7.4 µM; Activity (RAW264.7 [5]): Dose-dependent effect; Activity (RAW264.7 [6]): Dose-dependent effect; Activity (RAW264.7 [7]): Dose-dependent effect |
| CC(=O)O[C@@H]1[C@H](C)/C=C/C(C)(C)C(=O)C[C@@H](O)/C(C)=C/[C@H]2[C@@H](OC(=O)c3ccccc3)[C@H](C)C[C@]12OC(C)=O | inactive | Non-Toxic | – |
| C[C@@H]1C[C@H]2[C@@H]3CCC4=CC(=O)C=C[C@]4(C)[C@@]3(F)[C@@H](O)C[C@]2(C)[C@@]1(O)C(=O)CO [DEXAMETHASONE] | – | – | inhibition at 15 µM (RAW264.7 [8]): 34.2% |
| CC(=O)O[C@]12C[C@@H](C)[C@H](OC(=O)c3ccccc3)[C@@H]1/C=C(\C)[C@H](O)CC(=O)C(C)(C)C/C=C(\C)C2=O | inactive | Non-Toxic | – |
| CC(=O)O[C@@H]1[C@H](C)/C=C/C(C)(C)C(=O)C[C@@H](OC(=O)c2ccccc2)/C(C)=C/[C@H]2[C@@H](OC(=O)c3ccccc3)[C@H](C)C[C@]12OC(C)=O [EUPHOSCOPIN C] | inactive | Non-Toxic | – |
| COc1cc(/C=C/c2ccccc2)c(C(=O)O)c(O)c1CC=C(C)C | – | – | inhibition at 15 µM (RAW264.7 [8]): 30.2% |
| CC(=O)O[C@@H]1[C@@H](C)/C=C/C(C)(C)C(=O)C[C@@H](O)/C(C)=C/[C@H]2[C@@H](OC(=O)c3ccccc3)[C@H](C)C[C@]12OC(C)=O | inactive | Non-Toxic | – |
| CC(=O)O[C@]12C[C@@H](C)[C@H](OC(=O)c3ccccc3)[C@@H]1/C=C(\C)C(=O)CC(=O)C(C)(C)C/C=C(\C)C2=O | inactive | Non-Toxic | – |
| CC(=O)O[C@@H]1[C@@H](C)/C=C/C(C)(C)C(=O)C[C@@H](OC(C)=O)/C(C)=C/[C@H]2[C@@H](OC(=O)c3ccccc3)[C@@H](C)C[C@]12OC(C)=O | inactive | Non-Toxic | – |
| CC(=O)O[C@]12C[C@H](C)[C@H](OC(=O)c3ccccc3)[C@@H]1/C=C(\C)[C@H](OC(=O)c1ccccc1)CC(=O)C(C)(C)/C=C/[C@@H](C)C2=O | inactive | Non-Toxic | – |
| CC(=O)O[C@]12C[C@@H](C)[C@H](OC(=O)c3ccccc3)[C@@H]1/C=C(\C)[C@H](OC(=O)c1ccccc1)CC(=O)C(C)(C)/C=C/[C@@H](C)C2=O | inactive | Non-Toxic | – |
